Patent US10758522B2, “Small molecule analogs of the nemo binding peptide” (THE SCRIPPS RESEARCH INSTITUTE, priority 2015, dated 2020)

Columns and labels:
[1] = test system: NF-κB; experiment: EMSA of NF-κB DNA binding in C2C12 cells; assay type: cell-based, mouse; details: 200 μM
Method: To confirm that the NBD mimetics reduce IKK activity, the extent of phosphorylation of the IKK target, IκBα, in response to 10 ng/ml of TNF-α was determined by Western blot at 0, 5 and 10 min after TNF-α stimulation. […] To determine if the mimetics also reduce NF-κB DNA binding activity, electrophoretic mobility shift assay (EMSA) was conducted both in vivo and in vitro.
Cytoplasmic and nuclear fractions were extracted using the NE-PER nuclear and cytoplasmic extraction reagents (ThermoFisher) according to the manufacturer's instructions. The gel shift assay was performed by following the previously described method (41). In brief, 5 μg of nuclear extract was incubated with gel shift binding buffer and an α-^32P-deoxycytodine triphosphate-radiolabeled NF-κB probe for 20 min at room temperature (MP Biomedicals). The oligonucleotide sequences are as follows: NF-κB template, 5′-[…]-3′; NF-κB annealing, 5′-[…]-3′. The reaction product was separated on a 6% non-denaturing polyacrylamide gel.

[2] = Degradation in the presence of serum; assay type: in vitro ADME; details: data not shown
[3] = test system: embryonic fibroblasts from Ercc1−/− mice; experiment: Senescence rescue assay in ERCC1-deficient murine embryonic fibroblasts (SA-ß-gal); assay type: cell-based, mouse; details: oxidative stress conditions (20% O2)
Excerpt: In an attempt to identify new drugs able to improve healthspan, we have developed an assay for screening for drugs able to rescue primary “aged” fibroblasts from senescence. This assay uses murine embryonic fibroblasts (MEFs) from mice with accelerated aging due to a deficiency in an important DNA repair pathway, ERCC1-XPF. These MEFs undergo rapid senescence in culture, especially when grown under the high oxygen conditions that confers oxidative stress (FIGS. 18 and 19).

[4] = test system: Ercc1−/Δ mice; experiment: Systemic treatment of Ercc1−/Δ mice, intervertebral disc proteoglycan; assay type: in vivo, mouse; details: IP 3× a week, 10 mg/kg for 8 weeks
Method: The ability of the compounds to work systemically was also tested. In these experiments, Ercc1^−/Δ mice with accelerated aging (lifespan of 5 months) were treated systemically, 3× a week, by IP injection at a dose of 10 mg/kg for 8 weeks. Since we previously had shown that the NF-κB is a key factor in driving intervertebral disc degenerated, we assessed the effects of treatment on proteoglycan synthesis and content in the discus following treatment.

[5] = test system: NF-κB; experiment: Dual-luciferase (NF-κB firefly / SV40 Renilla) reporter assay in HEK293 cells; assay type: cell-based; details: Homo sapiens; inhibition of TNF-α-induced NF-κB activation, HEK293, luciferase assays at 0, 25, 50, 100 and 150 μM, GraphPad
Method: Thus seven rounds of structural modification and optimization were performed to improve bioactivity and stability and more than one hundred small molecules were tested (data not shown). […] To minimize the influence of drug toxicity on the screening assay, a renilla luciferase reporter driven by the SV40 promoter was cotransfected with the NF-κB luciferase reporter into HEK293 cells as a co-reporter for normalization.
Inhibitory effects of NBD mimetics on NF-κB activation were measured by luciferase assays at multiple concentrations: 0, 25, 50, 100 and 150 μM. IC50 of NBD mimetics was determined based on the dose-dependent curve by using GraphPad.
HEK293 cells grown in 10 cm plates were co-transfected with co-reporter of Renilla plasmid driven by SV40 and luciferase plasmid driven by NF-κB at the ratio of 1:3 with Lipofectamine 2000 (Invitrogen). Transiently transfected HEK293 were grown and treated as described above and subjected to a dual-luciferase reporter assay according to the manufacturer's instruction. Firefly luciferase activity was normalized to Renilla luciferase to get the relative luciferase activity.

Row | SMILES | TNFα-induced NF-κB DNA binding activity (EMSA) [1] | degradation in the presence of serum [2] | senescence (SA-ß-gal staining) of ERCC1-deficient MEFs [3] | proteoglycan synthesis and content in the intervertebral disc [4] | IC50 [5] [µM]
1 | Nc1ncccc1C(=O)OCC(=O)Nc1ccc(Cl)cc1F [NBDA-1, 2-((4-chloro-2-fluorophenyl)amino)-2-oxoethyl 2-aminonicotinate] | significantly decreased TNFα-induced NF-κB DNA binding activity | rapid degradation in the presence of serum | reduced senescence | increased the proteoglycan content | –
2 | O=C(CNCCc1cc(F)cc(F)c1)Nc1ccc(Cl)cn1 [SR12460, N-(5-chloropyridin-2-yl)-2-((3,5-difluorophenethyl)amino)acetamide] | – | – | – | – | 11.2
